The test system of one series is Proteus vulgaris TN 224. As to the kind of experiment: Increasing effect on antimicrobial activity of ampicillin and cefotiam by C-19393S2, P. vulgaris TN 224. In kind it is cell-based. To be noted: read-out: Minimum Inhibitory Concentration. From the text:
(§1) *Clinically isolated strains having the ability to produce betalactamase
(§2) Medium: Heart Infusion Agar (Eiken Chemical Co., Japan)

The subject of a further series is Escherichia coli TN 659. Put plainly: Increasing effect on antimicrobial activity of ampicillin and cefotiam by C-19393S2, E. coli TN 659. In kind it is cell-based. The conditions noted are these: read-out: Minimum Inhibitory Concentration.
From the text: as §1, §2

For series [1], the system named is Klebsiella pneumoniae TN 1725. Put plainly: Increasing effect on antimicrobial activity of ampicillin and cefotiam by C-19393S2, K. pneumoniae TN 1725. In kind it is cell-based. To be noted: read-out: Minimum Inhibitory Concentration.
From the text: as §1, §2

A short description of another series: Solubility. In kind it is physicochemical.
A further series is described as follows: Stability. In kind it is physicochemical.
Series [2] relates to gram-positive and gram-negative bacteria. Put plainly: Antimicrobial activity (in words). In kind it is cell-based.
Series [3] relates to various bacteria which exhibit resistance to penicillin derivatives and/or cephalosporin derivatives. Put plainly: Sensitivity of resistant bacteria to penicillin and/or cephalosporin derivatives. In kind it is cell-based. The conditions noted are these: to penicillin derivatives and/or cephalosporin derivatives (ampicillin, cefotiam).
Another series concerns betalactamase. As to the kind of experiment: Betalactamase inhibiting activity. In kind it is biochemical.
The subject of series [4] is Pseudomonas aeruginosa IFO 3080. As to the kind of experiment: Antimicrobial spectrum, MIC on bouillon agar, P. aeruginosa. In kind it is cell-based. The conditions noted are these: IFO3080, read-out: Minimum Inhibitory Concentration. From the text: (§3) The biological properties of C-19393S2 are described below. The antibiotic spectrum of C-19393S2 sodium salt against various microorganisms are shown below in Table 4.

For series [5], the system named is Alcaligenes faecalis IFO 13111. Put plainly: Antimicrobial spectrum, MIC on bouillon agar, A. faecalis. In kind it is cell-based. To be noted: IFO13111, read-out: Minimum Inhibitory Concentration.
From the text: as §3

The test system of series [6] is Klebsiella pneumoniae IFO 3318. As to the kind of experiment: Antimicrobial spectrum, MIC on bouillon agar, K. pneumoniae. In kind it is cell-based. The conditions noted are these: IFO3318, read-out: Minimum Inhibitory Concentration.
From the text: as §3

Series [7] relates to Proteus vulgaris IFO 3045. Put plainly: Antimicrobial spectrum, MIC on bouillon agar, P. vulgaris. In kind it is cell-based. To be noted: IFO3045, read-out: Minimum Inhibitory Concentration.
From the text: as §3

Series [8] relates to Bacillus subtilis IFO 3513. Put plainly: Antimicrobial spectrum, MIC on bouillon agar, B. subtilis. In kind it is cell-based. To be noted: IFO3513, read-out: Minimum Inhibitory Concentration.
From the text: as §3

Another series relates to Sarcina lutea IFO 3232. As to the kind of experiment: Antimicrobial spectrum, MIC on bouillon agar, S. lutea. In kind it is cell-based. To be noted: Micrococcus luteus, IFO3232, read-out: Minimum Inhibitory Concentration.
From the text: as §3

Series [9] has as its system Comamonas terrigena IFO 13299. As to the kind of experiment: Antimicrobial spectrum, MIC on bouillon agar, C. terrigena. In kind it is cell-based. The conditions noted are these: IFO13299, read-out: Minimum Inhibitory Concentration.
From the text: as §3

The subject of series [10] is Proteus mirabilis IFO 3845. Put plainly: Antimicrobial spectrum, MIC on bouillon agar, P. mirabilis. In kind it is cell-based. To be noted: IFO3845, read-out: Minimum Inhibitory Concentration.
From the text: as §3

Another series concerns Bacillus cereus IFO 3460. Put plainly: Antimicrobial spectrum, MIC on bouillon agar, B. cereus. In kind it is cell-based. To be noted: IFO3460, read-out: Minimum Inhibitory Concentration.
From the text: as §3

The test system of series [11] is Serratia marcescens IFO 12648. Put plainly: Antimicrobial spectrum, MIC on bouillon agar, S. marcescens. In kind it is cell-based. The conditions noted are these: IFO12648, read-out: Minimum Inhibitory Concentration.
From the text: as §3

The next series concerns Escherichia coli NIHJ. Put plainly: Antimicrobial spectrum, MIC on bouillon agar, E. coli NIHJ. In kind it is cell-based. The conditions noted are these: read-out: Minimum Inhibitory Concentration.
From the text: as §3

Series [12] concerns Salmonella typhimurium IFO 12529. As to the kind of experiment: Antimicrobial spectrum, MIC on bouillon agar, S. typhimurium. The conditions noted are these: Salmonella enterica, read-out: Minimum Inhibitory Concentration. In kind it is cell-based.
From the text: as §3

For series [13], the system named is Staphylococcus aureus 209P. As to the kind of experiment: Antimicrobial spectrum, MIC on bouillon agar, S. aureus. In kind it is cell-based. The conditions noted are these: read-out: Minimum Inhibitory Concentration.
From the text: as §3

For series [14] the following is noted: Umezawa et al., The Journal of Antibiotics, Vol. 26, pages 51-54, 1973; cited from earlier work.
Where [15] appears, read: TN224, Proteus vulgaris TN 224, C-19393S2 0, Heart Infusion Agar.
Setting [16] is: TN224, Proteus vulgaris TN 224, with C-19393S2 1 μg/ml, Heart Infusion Agar.
Setting [17] is: TN224, Proteus vulgaris TN 224, with C-19393S2 5 μg/ml, Heart Infusion Agar.
Setting [18] is: TN659, Escherichia coli TN 659, C-19393S2 0, Heart Infusion Agar.
Setting [19] is: TN659, Escherichia coli TN 659, with C-19393S2 1 μg/ml, Heart Infusion Agar.
The mark [20] stands for this setting: TN659, Escherichia coli TN 659, with C-19393S2 5 μg/ml, Heart Infusion Agar.
Where [21] appears, read: TN1725, Klebsiella pneumoniae TN 1725, C-19393S2 0, Heart Infusion Agar.
Where [22] appears, read: TN1725, Klebsiella pneumoniae TN 1725, with C-19393S2 1 μg/ml, Heart Infusion Agar.
Setting [23] is: TN1725, Klebsiella pneumoniae TN 1725, with C-19393S2 5 μg/ml, Heart Infusion Agar.
[24] abbreviates: aqueous solution in a neutral pH region.
The mark [25] stands for this setting: comparison with MM-4550 (MC 696-SY2-A).

Each structure is given as a SMILES string. ≈ marks a conversion by molar mass, not a printed value. Entries after “also recorded” stand apart in the source; their conditions may differ. Structures can show the parent of a compound that is named as a salt. Where two headings read alike, the source gives them in different places.

Turning to `CC1(C)S[C@@H]2[C@H](NC(=O)[C@H](N)c3ccccc3)C(=O)N2[C@H]1C(=O)O` [Ampicillin], the MIC with Proteus vulgaris TN 224 (setting [15]) was 400 µg/mL (≈ 1140 µM); with Proteus vulgaris TN 224 (setting [16]), 1.56 µg/mL (≈ 4.46 µM); with Proteus vulgaris TN 224 (setting [17]) it was 1.56 µg/mL (≈ 4.46 µM); with Escherichia coli TN 659 (setting [18]), above 800 µg/mL; in the series with Escherichia coli TN 659 (setting [19]), 3.13 µg/mL (≈ 8.96 µM); with Escherichia coli TN 659 (setting [20]) it was at most 0.003 µg/mL. In addition, the MIC was determined as 800 µg/mL (≈ 2290 µM) in series [1] (setting [21]), 50 µg/mL (≈ 143 µM) in [1] (setting [22]) and 0.78 µg/mL (≈ 2.23 µM) in [1] (setting [23]).
As to `CC(=O)N/C=C/[S+]([O-])C1=C(C(=O)O)N2C(=O)C(C(C)(C)O)C2C1` (stereo not shown) [Antibiotic C-19393H2], the Solubility entry in the series “Solubility” (water, listed as H2) is listed as “water-soluble”. Moreover, the Stability entry in “Stability” (setting [24]) and in “Stability” (setting [25]) was “stable” throughout. For the same compound, the antimicrobial activity result in [2] was “exhibits antibacterial activity against gram-positive and gram-negative bacteria; also recorded: has antimicrobial activity against gram-positive and gram-negative bacteria”.
For the compound `CC(=O)N/C=C/[S+]([O-])C1=C(C(=O)O)N2C(=O)C(C(C)(C)OS(=O)(=O)O)C2C1` (stereo not shown) [Antibiotic C-19393S2], in [3], the “increase of sensitivity of resistant bacteria” value was “increases markedly the sensitivity; also recorded: markedly increases the sensitivity”. Moreover, in the series “Solubility” (water), the Solubility entry is “water-soluble”. Moreover, the Stability entry in the series “Stability” (setting [24]) and in “Stability” (setting [25]) was “stable” throughout. In addition, the antimicrobial activity entry in series [2] was “exhibits an antimicrobial activity against gram-positive and gram-negative bacteria”; in series [2] (listed as Antibiotic C-19393S2), “active against gram-positive and gram-negative bacteria”. The betalactamase inhibiting activity result in the series with betalactamase is listed as “strong betalactamase inhibiting activity; also recorded: exhibits a beta-lactamase inhibiting activity”.
Consider `CC(=O)N/C=C/[S+]([O-])C1=C(C(=O)O)N2C(=O)C(C(C)(C)O)C2C1` (stereo not shown) [C-19393H2 sodium salt], for which the MIC stood at 10 µg/mL in series [4]; 5 µg/mL in series [5]; 0.31 µg/mL in series [6]; 5 µg/mL in series [7]; 0.31 µg/mL in [8]; 0.31 µg/mL with Sarcina lutea IFO 3232. Further, the MIC amounted to 0.16 µg/mL in series [9]; 5 µg/mL in series [10]; 10 µg/mL with Bacillus cereus IFO 3460; 0.31 µg/mL in [11]; 0.08 µg/mL in the series with Escherichia coli NIHJ; 0.31 µg/mL in [12]. Also, the MIC in series [13] is 0.63 µg/mL. The Solubility entry is “sparingly soluble” in “Solubility” (acetone); “sparingly soluble” in “Solubility” (butanol); “Insoluble” in the series “Solubility” (chloroform); “sparingly soluble” in the series “Solubility” (ethanol); “Insoluble” in the series “Solubility” (ethyl acetate); “soluble” in the series “Solubility” (methanol). Besides, the Solubility entry in “Solubility” (water) is reported as “soluble”.
With `CC(=O)N/C=C/[S+]([O-])C1=C(C(=O)O)N2C(=O)C(C(C)(C)OS(=O)(=O)O)C2C1` (stereo not shown) [C-19393S2 disodium salt], the MIC in series [4] is above 100 µg/mL; in series [5], 50 µg/mL; in series [6], 12.5 µg/mL; in [7], 100 µg/mL; in [8], 12.5 µg/mL; with Sarcina lutea IFO 3232, 12.5 µg/mL. Also, the MIC in [9] is 6.25 µg/mL; in series [10], 50 µg/mL; in the series on Bacillus cereus IFO 3460 it was above 100 µg/mL; in series [11], 25 µg/mL; with Escherichia coli NIHJ it was 12.5 to 25 µg/mL; in [12], 12.5 µg/mL. Also, in [13], the MIC worked out at 12.5 µg/mL. In addition, the Solubility result was “soluble” in the series “Solubility” (acetic acid); “Insoluble” in the series “Solubility” (acetone); “sparingly soluble” in the series “Solubility” (butanol); “Insoluble” in the series “Solubility” (chloroform); “soluble” in the series “Solubility” (dimethyl sulfoxide); “sparingly soluble” in “Solubility” (ethanol). Also, the Solubility result in the series “Solubility” (ethyl acetate) is reported as “Insoluble”; in “Solubility” (methanol) it was “soluble”; in “Solubility” (pyridine), “sparingly soluble”; in the series “Solubility” (water), “readily soluble”.
Consider `CN(C)CCn1nnnc1SCC1=C(C(=O)O)N2C(=O)[C@@H](NC(=O)Cc3csc(N)n3)[C@H]2SC1` [Cefotiam], for which the MIC in the series with Proteus vulgaris TN 224 (setting [15]) was 200 µg/mL (≈ 380 µM); with Proteus vulgaris TN 224 (setting [16]), 0.2 µg/mL (≈ 0.38 µM); with Proteus vulgaris TN 224 (setting [17]), 0.2 µg/mL (≈ 0.38 µM); in the series with Escherichia coli TN 659 (setting [18]) it was 0.2 µg/mL (≈ 0.38 µM); in the series on Escherichia coli TN 659 (setting [19]), 0.1 µg/mL (≈ 0.19 µM); with Escherichia coli TN 659 (setting [20]), 0.006 µg/mL (≈ 0.0114 µM). For the same compound, the results for the MIC in series [1] (setting [21]), in series [1] (setting [22]) and in series [1] (setting [23]) were 200 µg/mL (≈ 380 µM), 0.2 µg/mL (≈ 0.38 µM) and 0.02 µg/mL (≈ 0.038 µM), respectively.
With `CC(=O)N/C=C/[S+]([O-])C1=C(C(=O)O)N2C(=O)C(C(C)OS(=O)(=O)O)C2C1` (stereo not shown) [MC 696-SY2-A], the Stability result in [14] is “very unstable”.

The values are drawn from US4518529A, “Antibiotics C-19393S2” (Takeda Chemical Industries, Ltd., priority 1979, dated 1985).
